The record followed here is ChEMBL document CHEMBL6103618, “Discovery of Novel Oxazolo[4,3-f]purine Derivatives as Antitumor Agents through PPIA Interaction” (J Med Chem, 2025).

SMILES strings stand for the structures.

The test system of one experiment is HeLa. In words: Antiproliferative activity against human HeLa cells assessed as inhibition of cell viability incubated for 48 hrs by CCK8 assay. The experiment is classed as functional, cell-based.
The test system of the next experiment is HCT-116. In words: Antiproliferative activity against human HCT-116 cells assessed as inhibition of cell viability incubated for 48 hrs by CCK8 assay. It counts as functional, cell-based. Conditions: HCT-116, 48 h.

As to `CCOC(=O)/C=C\N1c2nc(Cl)nc(Cl)c2N2C(c3ccccc3)OC(C(=O)OCC)(C(=O)OCC)C12` (configuration not stated), the half-inhibitory concentration (IC50) in the experiment on HeLa and in the experiment with HCT-116 was more than 50 µM throughout.

In the case of `C=C(C(=O)OC)N1c2nc(Cl)nc(Cl)c2N2[C@@H](c3ccccc3F)OC(C(=O)OCC)(C(=O)OCC)[C@H]12`, the results for the IC50 in the experiment with HeLa and with HCT-116 were 0.74 µM and 0.24 µM, respectively.

For the molecule `C=C(C(=O)OC)N1c2nc(Cl)nc(Cl)c2N2[C@H](c3ccccc3F)OC(C(=O)OCC)(C(=O)OCC)[C@@H]12`, the IC50 was 0.47 µM in the experiment on HeLa and 0.65 µM in the experiment on HCT-116.

Take `CCOC(=O)/C=C/N1c2nc(Cl)nc(Cl)c2N2C(c3cccc([N+](=O)[O-])c3)OC(C(=O)OCC)(C(=O)OCC)C12` (racemic): the IC50 in the experiment with HeLa is 6.52 µM; in the experiment on HCT-116, 4.33 µM.

Turning to `CCOC(=O)/C=C/N1c2nc(Cl)nc(Cl)c2N2C(c3ccc(I)cc3)OC(C(=O)OCC)(C(=O)OCC)C12` (racemic), the values for the IC50 in the experiment with HeLa and with HCT-116 were more than 50 µM and 15.8 µM, respectively.

`CCOC(=O)/C=C/N1c2nc(Cl)nc(Cl)c2N2C(c3ccccc3I)OC(C(=O)OCC)(C(=O)OCC)C12` (racemic): the IC50 in the experiment on HeLa is 10.2 µM; in the experiment with HCT-116, 3.73 µM.

With `CCOC(=O)/C=C/N1c2nc(Cl)nc(Cl)c2N2C(c3cccc(Br)c3)OC(C(=O)OCC)(C(=O)OCC)C12` (racemic), the IC50 with HeLa turned out to be 11.7 µM; with HCT-116, 7.92 µM.

With `CCOC(=O)/C=C/N1c2nc(Cl)nc(Cl)c2N2C(c3ccccc3)OC(C(=O)OCC)C12` (racemic), the IC50 in the experiment on HeLa was 6.57 µM; in the experiment on HCT-116 it was 11.9 µM.

For `CCOC(=O)C1(C(=O)OCC)OC(c2ccccc2)N2c3c(Cl)nc(Cl)nc3N(/C=C/C(=O)OC(C)(C)C)C21` (racemic), the half-inhibitory concentration (IC50) in the experiment with HeLa and in the experiment with HCT-116 was more than 50 µM in each case.

Turning to `CCOC(=O)/C=C/N1c2nc(Cl)nc(Cl)c2N2C(c3cc(OC)c(OC)c(OC)c3)OC(C(=O)OCC)(C(=O)OCC)C12` (racemic), the results for the IC50 in the experiment with HeLa and with HCT-116 were more than 50 µM and 14 µM, respectively.

Consider `CCOC(=O)/C=C/N1c2nc(Cl)nc(Cl)c2N2C(c3ccc(Cl)c(Cl)c3)OC(C(=O)OCC)(C(=O)OCC)C12` (racemic), for which the 50% inhibitory concentration (IC50) with HeLa came to 16.4 µM; in the experiment on HCT-116 it was 10.9 µM.

As to `CCOC(=O)/C=C/N1c2nc(Cl)nc(Cl)c2N2C(c3ccc(C)cc3)OC(C(=O)OCC)(C(=O)OCC)C12` (racemic), the IC50 in the experiment on HeLa was determined as 43.7 µM; with HCT-116, 20.7 µM.

Consider `CCCSc1nc(Cl)nc2c1N1C(c3ccccc3)OC(C(=O)OCC)(C(=O)OCC)C1N2/C=C/C(=O)OCC` (racemic), for which the IC50 with HeLa and in the experiment with HCT-116 was more than 50 µM throughout.

`CCOC(=O)/C=C/N1c2nc(Cl)nc(Cl)c2N2C(c3cccc4ccccc34)OC(C(=O)OCC)(C(=O)OCC)C12` (racemic): the IC50 in the experiment with HeLa and in the experiment on HCT-116 was more than 50 µM each time.

Consider `CCOC(=O)/C=C/N1c2nc(Cl)nc(Cl)c2N2C(c3cccc(OC)c3)OC(C(=O)OCC)(C(=O)OCC)C12` (racemic), for which the results for the IC50 in the experiment with HeLa and in the experiment on HCT-116 were 45.9 µM and 20.7 µM, respectively.

Consider `C=C(C(=O)OCC)N1c2nc(Cl)nc(Cl)c2N2C(c3ccccc3F)OC(C(=O)OCC)(C(=O)OCC)C12` (racemic), for which the IC50 in the experiment on HeLa worked out at 0.55 µM; in the experiment with HCT-116, 0.82 µM.

For `CCOC(=O)C1(C(=O)OCC)OC(c2ccccc2)N2c3c(Cl)nc(Cl)nc3N(/C=C/C(=O)OCc3ccccc3)C21` (racemic), the IC50 in the experiment with HeLa and in the experiment with HCT-116 was more than 50 µM in each case.

On to `CCOC(=O)/C=C/N1c2nc(Cl)nc(N)c2N2C(c3ccccc3)OC(C(=O)OCC)(C(=O)OCC)C12` (racemic), for which the IC50 in the experiment with HeLa and with HCT-116 was more than 50 µM in each case.

On to `CCOC(=O)/C=C/N1c2nc(Cl)nc(Cl)c2N2C(c3ccccc3)OC(C(=O)OCc3ccccc3)(C(=O)OCc3ccccc3)C12` (racemic), for which the 50% inhibitory concentration (IC50) in the experiment on HeLa and in the experiment on HCT-116 was more than 50 µM each time.

For the molecule `CCOC(=O)/C=C/N1c2ncncc2N2C(c3ccccc3)OC(C(=O)OCC)(C(=O)OCC)C12` (racemic), the IC50 in the experiment on HeLa and in the experiment on HCT-116 was more than 50 µM in each case.

On to `CCOC(=O)/C=C/N1c2nc(Cl)nc(Cl)c2N2C(c3ccccc3F)OC(C(=O)OCC)(C(=O)OCC)C12` (racemic), for which the values for the IC50 in the experiment with HeLa and with HCT-116 were 2.12 µM and 2.19 µM, respectively.

With `CCOC(=O)/C=C/N1c2nc(Cl)nc(Cl)c2N2C(c3ccccc3)OC(C(=O)OCC)(C(=O)OCC)C12` (racemic), the values for the concentration for half-maximal inhibition (IC50) in the experiment on HeLa and in the experiment on HCT-116 were 12.3 µM and 13.8 µM, respectively.

For `CCOC(=O)/C=C/N1c2nc(Cl)nc(Cl)c2N2C(c3ccc([N+](=O)[O-])cc3)OC(C(=O)OCC)(C(=O)OCC)C12` (racemic), the half-maximal inhibitory concentration (IC50) with HeLa was 9.73 µM; in the experiment with HCT-116 it was 4.94 µM.

Consider `CCOC(=O)/C=C/N1c2nc(F)nc(Cl)c2N2C(c3ccccc3)OC(C(=O)OCC)(C(=O)OCC)C12` (racemic), for which the IC50 was 18.3 µM in the experiment with HeLa and 18.6 µM with HCT-116.

As to `CCCSc1ncnc2c1N1C(c3ccccc3)OC(C(=O)OCC)(C(=O)OCC)C1N2/C=C/C(=O)OCC` (racemic), the IC50 with HeLa and in the experiment with HCT-116 was more than 50 µM each time.

Take `C=C(C(=O)OCC)N1c2nc(Cl)nc(Cl)c2N2C(c3ccccc3Cl)OC(C(=O)OCC)(C(=O)OCC)C12` (racemic): the values for the IC50 in the experiment with HeLa and with HCT-116 were 2.8 µM and 2.47 µM, respectively.

As for `CCOC(=O)/C=C/N1c2nc(Cl)nc(Cl)c2N2C(c3ccccc3Cl)OC(C(=O)OCC)(C(=O)OCC)C12` (racemic), the values for the half-maximal inhibitory concentration (IC50) with HeLa and with HCT-116 were 3.55 µM and 2.7 µM, respectively.

With `CCOC(=O)/C=C/N1c2nc(Cl)nc(Cl)c2N2C(c3ccc(Br)cc3)OC(C(=O)OCC)(C(=O)OCC)C12` (racemic), the IC50 in the experiment with HeLa came out at 13.7 µM; with HCT-116 it was 9.32 µM.

As for `CCOC(=O)/C=C/N1c2nc(Cl)nc(Cl)c2N2C(c3ccc(F)cc3)OC(C(=O)OCC)(C(=O)OCC)C12` (racemic), the IC50 is 7.16 µM in the experiment on HeLa and 6.97 µM with HCT-116.

`CCOC(=O)/C=C/N1c2nc(Cl)nc(Cl)c2N2C(c3ccc4ccccc4c3)OC(C(=O)OCC)(C(=O)OCC)C12` (racemic): the IC50 in the experiment with HeLa and with HCT-116 was more than 50 µM each time.

In the case of `CCOC(=O)/C=C/N1c2nc(Cl)nc(Cl)c2N2C(c3cccs3)OC(C(=O)OCC)(C(=O)OCC)C12` (racemic), the 50% inhibitory concentration (IC50) in the experiment with HeLa and with HCT-116 was more than 50 µM throughout.

As for `CCOC(=O)/C=C/N1c2nc(Cl)nc(Cl)c2N2C(c3ccccc3Br)OC(C(=O)OCC)(C(=O)OCC)C12` (racemic), the IC50 in the experiment on HeLa is 3.15 µM; with HCT-116 it was 3.41 µM.

On to `CCOC(=O)C1(C(=O)OCC)OC(c2ccccc2)N2c3c(Cl)nc(Cl)nc3N(/C=C/C(=O)OC)C21` (racemic), for which the values for the IC50 with HeLa and in the experiment on HCT-116 were 11.2 µM and 14.2 µM, respectively.

Regarding `CCOC(=O)/C=C/N1c2nc(Cl)nc(Cl)c2N2C(c3cccc(C)c3)OC(C(=O)OCC)(C(=O)OCC)C12` (racemic), the IC50 in the experiment on HeLa was 26.2 µM; in the experiment on HCT-116 it was 10.4 µM.

As for `CCOC(=O)/C=C/N1c2nc(Cl)nc(Cl)c2N2C(c3ccc(Cl)cc3)OC(C(=O)OCC)(C(=O)OCC)C12` (racemic), the IC50 in the experiment on HeLa was more than 50 µM; with HCT-116, 7.14 µM.

Consider `CCOC(=O)/C=C/N1c2nc(Cl)nc(Cl)c2N2C(c3ccc(C(F)(F)F)cc3)OC(C(=O)OCC)(C(=O)OCC)C12` (racemic), for which the results for the half-maximal inhibitory concentration (IC50) in the experiment with HeLa and in the experiment on HCT-116 were more than 50 µM and 7.13 µM, respectively.

As to `CCOC(=O)/C=C/N1c2nc(Cl)nc(Cl)c2N2C(c3ccccc3)OC(COS(=O)(=O)c3ccc(C)cc3)(COS(=O)(=O)c3ccc(C)cc3)C12` (racemic), the IC50 in the experiment on HeLa and with HCT-116 was more than 50 µM in each case.

In the case of `CCOC(=O)/C=C/N1c2nc(Cl)nc(Cl)c2N2C(c3cccc(F)c3)OC(C(=O)OCC)(C(=O)OCC)C12` (racemic), the IC50 in the experiment on HeLa stood at 6.72 µM; in the experiment with HCT-116, 5.1 µM.

In the case of `CCOC(=O)/C=C/N1c2nc(Cl)nc(Cl)c2N2C(c3ccc(-c4ccccn4)cc3)OC(C(=O)OCC)(C(=O)OCC)C12` (racemic), the half-maximal inhibitory concentration (IC50) in the experiment on HeLa was more than 50 µM; in the experiment on HCT-116 it was 21.7 µM.

For `CCOC(=O)/C=C/N1c2nc(Cl)nc(Cl)c2N2C(c3ccccc3C)OC(C(=O)OCC)(C(=O)OCC)C12` (racemic), the IC50 amounted to 12.4 µM with HeLa and 9.84 µM in the experiment with HCT-116.

As to `CCOC(=O)/C=C/N1c2ncnc(OC)c2N2C(c3ccccc3)OC(C(=O)OCC)(C(=O)OCC)C12` (racemic), the half-inhibitory concentration (IC50) with HeLa and with HCT-116 was more than 50 µM throughout.

As to `CCOC(=O)/C=C/N1c2nc(Cl)nc(Cl)c2N2C(c3cccc(C(F)(F)F)c3)OC(C(=O)OCC)(C(=O)OCC)C12` (racemic), the half-inhibitory concentration (IC50) in the experiment on HeLa was 10 µM; with HCT-116, 3.56 µM.

As to `CCOC(=O)/C=C/N1c2nc(Cl)nc(Cl)c2N2C(c3ccccc3)OC(C(=O)OC)(C(=O)OC)C12` (racemic), the 50% inhibitory concentration (IC50) turned out to be 12.6 µM in the experiment with HeLa and 6.93 µM in the experiment on HCT-116.

Turning to `CCOC(=O)/C=C/N1c2nc(Cl)nc(Cl)c2N2C(c3ccccc3C(F)(F)F)OC(C(=O)OCC)(C(=O)OCC)C12` (racemic), the IC50 was found to be 4.95 µM with HeLa and 3.29 µM in the experiment on HCT-116.

In the case of `CCOC(=O)/C=C/N1c2nc(Cl)nc(Cl)c2N2C(c3cccc(Cl)c3)OC(C(=O)OCC)(C(=O)OCC)C12` (racemic), the IC50 was found to be 16.6 µM in the experiment on HeLa and 7.36 µM with HCT-116.

`CCOC(=O)/C=C/N1c2nc(Cl)nc(OC)c2N2C(c3ccccc3)OC(C(=O)OCC)(C(=O)OCC)C12` (racemic): the IC50 with HeLa and in the experiment on HCT-116 was more than 50 µM in each case.

On to `C=C(C(=O)OCC)N1c2nc(Cl)nc(Cl)c2N2C(c3ccccc3)OC(C(=O)OCC)(C(=O)OCC)C12` (racemic), for which the half-inhibitory concentration (IC50) worked out at 1.74 µM in the experiment on HeLa and 2.5 µM in the experiment on HCT-116.

`CCOC(=O)/C=C/N1c2ncnc(Cl)c2N2C(c3ccccc3)OC(C(=O)OCC)(C(=O)OCC)C12` (racemic): the IC50 with HeLa was more than 50 µM; in the experiment on HCT-116, 34 µM.

As to `CCOC(=O)/C=C/N1c2nc(Cl)nc(Cl)c2N2C(c3ccccc3)OC(CO)(CO)C12` (racemic), the 50% inhibitory concentration (IC50) in the experiment on HeLa came out at 15.4 µM; in the experiment with HCT-116, 11.2 µM.

In the case of `CCOC(=O)/C=C/N1c2nc(Cl)nc(Cl)c2N2C(c3ccccc3)OC(CO)C12` (racemic), the IC50 in the experiment with HeLa worked out at 18.3 µM; in the experiment with HCT-116, 11.4 µM.

For `CCOC(=O)/C=C/N1c2nc(Cl)nc(Cl)c2N2C(c3ccc(C)c(C)c3)OC(C(=O)OCC)(C(=O)OCC)C12` (racemic), the IC50 turned out to be 1.92 µM in the experiment with HeLa and 14.9 µM with HCT-116.
